Laboratory results published in patent US20110009342A1, “USES OF PDCD5 POLYPEPTIDE FOR TUMOR CHEMOTHERAPY AND ORGAN PROTECTION” (priority 2008, published 2011).
Marks after values point to notes of the source that are not given here.

Assays:
Raji cells [1] = experiment: colony-forming ability (CFA) assay, ADM; assay type: cell-based; conditions: ADM 5 ng/mL alone; 14 days
Procedure: Analysis for colony forming ability (CFA): U937 cells (ATCC), in the logarithmic phase, were maintained in RPMI 1640 medium supplemented with 20% FBS and 0.4% methyl cellulose (Sigma) by the semi-solid colony culture method and were adjusted to a density of 5×10^3 cells/mL. The cells were divided into control groups and test groups, and each group was assayed in triple wells. U937 cells in the control groups were treated with DNR alone, with the final concentrations of 0 ng/mL and 0.5 ng/mL. U937 cells in the test group were treated with DNR of various concentrations combined with PDCD5 of various concentrations, while the final concentrations of PDCD5 were 0 μg/mL, 0.625 μg/mL, 1.25 μg/mL, and 2.5 μg/mL, respectively. After incubation for 14 days in a 37° C., 5% CO2 and saturatedly humidified incubator, a colony with more than 30 cells was counted by an inverted microscope in order to analyze colony forming ability of each group. […]
Methods: Colony-forming ability (CFA) assay: Raji cells of logarithmic growth phase were cultured, and the method was the same as that in Example 8. […] The numbers of colonies (containing≧30 cells) were counted by inverted microscope to observe the CFA, which is indicated by the ratio of average number of colony formation in each of the test groups versus that of the untreated control group.

K562 cells = experiment: Annexin-V apoptosis by flow cytometry, Ara-C; assay type: cell-based; conditions: Ara-C 0.1 μg/mL; PDCD5 60 μg/mL where combined; 48 hours
Procedure: Methods: Cell staining with FITC/Annexin-V and cell apoptosis detection in vitro by flow cytometry: K562 cells (ATCC) were maintained in RPMI 1640 (Life Technologies, USA) supplemented with 10% FBS (Hyclone, USA), and were plated in 24-well culture dishes to a density of 2×10^5 cells per well. rhPDCD5 protein was added in each well with a final concentration of 15 μg/mL, 30 μg/mL and 60 μg/mL, respectively. Chemotherapeutic drug Ara-C (Pharmacia, Italia) was then added with a final concentration of 0.1 μg/mL and RPMI 1640 medium supplemented with 10% FBS was added to bring the culture system to 1 mL. After incubation for 48 hours, the cells were stained with Annexin-V/PI (Biosea) and then were analyzed for apoptosis by flow cytometry.

Jurkat cells = experiment: FITC/Annexin-V apoptosis by flow cytometry, DNR; assay type: cell-based; conditions: DNR 0.05 μg/mL; PDCD5 5 μg/mL where combined; 24 h
Procedure: Methods: The density of Jurkat cells were adjusted by RPMI 1640 medium (Life Technologies, USA) supplemented with 10% Fetal Bovine Serum (FBS, Hyclone, USA). […] Subsequently, DNR (Pharmacia Italia S.P.A) was added with its final concentration of 0.05 μg/mL, and RPMI 1640 medium supplemented with 10% FBS was added to ensure the system to be 1 mL. After 24h incubation, the sample was stained with FITC/Annexin-V (Beijing Biosea Biotechnology CO., LTD) and detected for apoptosis by flow cytometry.

Raji cells [2] = experiment: FITC/Annexin-V apoptosis by flow cytometry, DNR; assay type: cell-based; conditions: DNR 0.05 μg/mL; PDCD5 5 μg/mL where combined; 24 h
Procedure: Methods: Raji cells were cultured in RPMI 1640 medium (Life Technologies, USA) supplemented with 10% Fetal Bovine Serum (FBS, Hyclone, USA). The cells were seeded in 24-well plates with 2×10^5 cells per well. rhPDCD5 was added to each well and the final concentrations were 0 μg/mL, 2.5 μg/mL and 5 μg/mL, respectively. Subsequently, DNR was added and the final concentrations were 0 μg/mL and 0.05 μg/mL, and RPMI 1640 medium supplemented with 10% FBS was added to ensure the system was brought to 1 mL. After 24 h incubation, the cells were stained with FITC/Annexin-V (Beijing Biosea Biotechnology Co., Ltd.) and the apoptosis was detected by flow cytometry.

U937 xenografts = experiment: U937 nude mice xenograft model, DNR; assay type: in vivo, BALB/c nude mice
Procedure: Methods: U937 nude mice xenograft model: BALB/c nude mice (5-6 weeks of age) were pretreated with cyclophosphamide (100 mg/kg, injected intraperitoneally once a day for two consecutive days). On day 3, 1×10^7 (100 μl) of U937 cells were subcutaneously (s.c.) injected into a single flank of each of the mice. The treatments began on day 7 after inoculation when the average tumor diameter reached about 5 mm. The mice were divided randomly into four groups (n=6, i.e., six mice in each group) and treated with normal saline (NS), rhPDCD5 (40 μg, locally injected into the tumor), DNR (40 μg, intraperitoneal) or DNR (40 μg) plus rhPDCD5 (40 μg), once a day for 8 consecutive days.
Tumor volume (V) was determined every other day by vernier caliper measurements and calculated based on the equation of V=ab^2/2, where “a” refers to a long tumor diameter and “b” refers to a short diameter, then tumor volume growth curve was drawn. The percentage of reductions in tumor growth was calculated using the formula: [1-(Tf-Ti)/(Cf-Ci)]×100, where Tf and Ti are the final and initial mean tumor volumes, respectively, of the group receiving a specific treatment, and Cf and Ci are the final and initial mean tumor volumes, respectively, of the NS control group. After the treatment, tumors were collected and weighed and tissues were sectioned and processed by histological hematoxylin and eosin (H&E) staining. Results were statistically analyzed using SPSS 13.0. The measurements were expressed as the mean±standard deviation. Data were analyzed by the single-factor ANOVA and Student's t test and are presented as mean±standard deviation (SD). P<0.05 was considered statistically significant.

U937 cells [3] = experiment: cell apoptosis assay, DNR; assay type: cell-based; conditions: PDCD5 5 μg/mL where combined, 24 hours
Procedure: Methods: Cell apoptosis assay: U937 cells (ATCC), in the logarithmic phase, were maintained in RPMI 1640 (Life Technologies, USA) supplemented with 10% FBS (Hyclone, USA), and were adjusted to a density of 2×10^5 cells/mL and then were divided into control groups and test groups. U937 cells in the control groups were treated with DNR (Pharmacia Italia SPA) alone, with the final concentrations of 0 μg/mL, 0.05 μg/mL, and 0.1 μg/mL. U937 cells in the test groups were treated with DNR of various concentrations combined with PDCD5 of various concentrations, with the final concentrations of PDCD5 being 0 μg/mL, 2.5 μg/mL, and 5 μg/mL, respectively. After being incubated for 24 hours in a 37° C., 5% CO2 and saturatedly humidified incubator, the cells were stained with Annexin-V/PI (Biosea) and then were analyzed for apoptosis with a FACSCalibur flow cytometer.

U937 cells [4] = experiment: colony forming ability (CFA), DNR; assay type: cell-based; conditions: DNR 0.5 ng/mL alone; 14 days
Procedure: (§1) Analysis for colony forming ability (CFA): U937 cells (ATCC), in the logarithmic phase, were maintained in RPMI 1640 medium supplemented with 20% FBS and 0.4% methyl cellulose (Sigma) by the semi-solid colony culture method and were adjusted to a density of 5×10^3 cells/mL. The cells were divided into control groups and test groups, and each group was assayed in triple wells. U937 cells in the control groups were treated with DNR alone, with the final concentrations of 0 ng/mL and 0.5 ng/mL. U937 cells in the test group were treated with DNR of various concentrations combined with PDCD5 of various concentrations, while the final concentrations of PDCD5 were 0 μg/mL, 0.625 μg/mL, 1.25 μg/mL, and 2.5 μg/mL, respectively. After incubation for 14 days in a 37° C., 5% CO2 and saturatedly humidified incubator, a colony with more than 30 cells was counted by an inverted microscope in order to analyze colony forming ability of each group. The colony forming ability was shown as the ratio of average number of colony in each group versus that of the untreated control group in which the final concentrations of DNR and PDCD5 were 0 μg/mL.

mice hearts = experiment: HE staining of heart paraffin sections of treated K562 xenograft mice; assay type: in vivo, BALB/c nu/nu mice; conditions: no PDCD5; Imatinib 1.2 mg oral or IDR 25 μg i.p.; n=6
Procedure: (§2) Methods: BALB/c nu/nu female mice (6-8 weeks of age) were injected intraperitoneally with cyclophosphamide (CTX) (Jiangsu Hengrui Medicine Co., Ltd.), 2 mg/day per mouse for two days. One day after the second cyclophosphamide injection, 1.5×10^7 of K562 cells were injected subcutaneously into the single armpit of each of the mice. The mice bearing K562 cell xenografts were divided randomly into nine groups (n=6, i.e., six mice in each group) and each of the mice was i.p. treated, respectively, with normal saline, PDCD5, IDR (Sigma Corporation), and IDR plus PDCD5. […] At the end of the experiment, mice were killed. The mice were the same batch of that of Example 6. The excised hearts of mice after treatment were fixed in 10% neutrally buffered formalin and then embedded in paraffin after dehydration. The paraffin embedding was cut and paraffin sections after HE staining were used to observe the myocardial congestion, hemorrhage, and myofiber degeneration of heart in mice.

mouse livers = experiment: HE staining of liver paraffin sections of treated K562 xenograft mice; assay type: in vivo, BALB/c nu/nu mice; conditions: no PDCD5; Imatinib 1.2 mg oral or IDR 25 μg i.p.; n=6
Procedure: as §2, with “excised liver” for “excised hearts”, “the necrosis of experimental mouse livers. Meanwhile, paraffin sections after Tunel (Roche Inc.) staining were used to observe the apoptosis of experimental mouse livers,” for “the myocardial congestion, hemorrhage,”, “and then the number” for “and myofiber degeneration”, “of apoptotic cells was counted” for “of heart”, “in five high-power microscope field for statistical analysis.” for “in mice.”

HL-60 cells = experiment: cell apoptosis assay, As2O3; assay type: cell-based; conditions: for rate of apoptosis: PDCD5 20 μg/mL where combined, 24 h
Procedure: Methods: Cell apoptosis assay: HL-60 cells (ATCC) of logarithmic growth phase were cultured and the density of cells was 2×10^5/mL. The cells were divided into control and test groups. In the control groups, the HL60 cells were treated only with As2O3 (Harbin Yida Pharmaceutical Co., Ltd.), and the final concentration of As2O3 were 0 μg/mL, 0.25 μg/mL and 0.5 μg/mL, respectively. In the test groups, the HL60 cells were treated with As2O3 in the various concentrations combined with PDCD5 in various concentrations, the final concentrations of PDCD5 being 0 μg/mL, 5 μg/mL, 10 μg/mL and 20 μg/mL, respectively. The cells were incubated in a 37° C., 5% CO2 and saturatedly humidified incubator for 24 h, and subsequently were stained with Annexin-V/PI and detected for apoptosis by flow cytometer.

HL60 cells = experiment: colony-forming ability (CFA) assay, As2O3; assay type: cell-based; conditions: As2O3 0.25 μg/mL alone; 14 days
Procedure: as §1
Colony-forming ability (CFA) assay: HL60 cells of logarithmic growth phase were cultured by a method identical to that in Example 8. The cells were divided into control and test groups (each with 3 wells): In the control groups, the HL60 cells were treated only with arsenic trioxide and the final concentration of which were 0 μg/mL and 0.25 μg/mL, respectively; in the test groups, the HL60 cells were treated with different concentrations of As2O3, which was combined with different concentrations of PDCD5, the final concentrations of PDCD5 were 0 μg/mL, 5 μg/mL, 10 μg/mL and 20 μg/mL, respectively. Cultures were incubated in a 37° C., 5% CO2 and saturatedly humidified incubator for 14 days. The numbers of colonies (containing≧30 cells) were counted on day 14 by inverted microscope. The colony-forming ability was observed as the ratio of the number of average colony formation in the test groups versus that in the untreated control group. […]

**Q.** For COc1cccc2c1C(=O)c1c(O)c3c(c(O)c1C2=O)C[C@@](O)(C(=O)CO)C[C@@H]3O[C@H]1C[C@H](N)[C@H](O)[C@H](C)O1 [ADM, adriamycin], which “CFA (ratio to untreated control)” value (Raji cells [1]) is on record?
**A.** 32%

**Q.** For Nc1ccn([C@@H]2O[C@H](CO)[C@@H](O)[C@@H]2O)c(=O)n1 [Ara-C, arabinoside], which apoptosis rate (K562 cells) is on record?
**A.** 34.87%

**Q.** COc1cccc2c1C(=O)c1c(O)c3c(c(O)c1C2=O)C[C@@](O)(C(C)=O)C[C@@H]3O[C@H]1C[C@H](N)[C@H](O)[C@H](C)O1 [DNR, Daunorubicin] was tested. Which rate of apoptosis (Jurkat cells) did it give?
**A.** 27.01%

**Q.** What about the rate of apoptosis (Raji cells [2]) of the same molecule?
**A.** 17.46%

**Q.** And the average tumor weight (U937 xenografts; after the treatment, DNR 40 μg, PDCD5 40 μg where combined)?
**A.** 0.45 ± 0.15 g

**Q.** What about the “inhibition of tumor growth (percentage of inhibition on tumor sizes vs control group)” value (U937 xenografts; day 15, DNR 40 μg, rhPDCD5 40 μg where combined) of the same molecule?
**A.** 31.97%

**Q.** What about the “Average size of tumors (mean ± SD)” value (U937 xenografts; fifteenth day, rhPDCD5 40 μg into the tumor, DNR 40 μg intraperitoneal, once a day for 8 days) of the same molecule?
**A.** 410.27 ± 154.93* mm^3

**Q.** What about the rate of apoptosis (U937 cells [3]; high-dose DNR 0.1 μg/mL) of the same molecule?
**A.** 23.01%

**Q.** What about the rate of apoptosis (U937 cells [3]; low-dose DNR 0.05 μg/mL) of the same molecule?
**A.** 21.23%

**Q.** And the “CFA (ratio to untreated control)” value (U937 cells [4])?
**A.** 79%

**Q.** With Cc1ccc(NC(=O)c2ccc(CN3CCN(C)CC3)cc2)cc1Nc1nccc(-c2cccnc2)n1 [Imatinib] as the molecule, how does the “Myocardial hemorrhage and congestion: mice graded +” value (mice hearts) read?
**A.** 1 number of mice

**Q.** And the “Myocardial hemorrhage and congestion: mice graded ++” value (mice hearts)?
**A.** 1 number of mice

**Q.** What about the “Myocardial hemorrhage and congestion: mice graded −” value (mice hearts) of the same molecule?
**A.** 4 number of mice

**Q.** What about the “Myofiber degeneration: mice graded +” value (mice hearts) of the same molecule?
**A.** 0 number of mice

**Q.** What about the “Myofiber degeneration: mice graded −” value (mice hearts) of the same molecule?
**A.** 6 number of mice

**Q.** And the “Sinusoidal expansion, congestive hemorrhage and necrosis of liver cells surrounding sinusoid: mice graded +” value (mouse livers)?
**A.** 2 number of mice

**Q.** And the “Sinusoidal expansion, congestive hemorrhage and necrosis of liver cells surrounding sinusoid: mice graded ++” value (mouse livers)?
**A.** 0 number of mice

**Q.** What about the “Sinusoidal expansion, congestive hemorrhage and necrosis of liver cells surrounding sinusoid: mice graded +/−” value (mouse livers) of the same molecule?
**A.** 0 number of mice

**Q.** And the “Sinusoidal expansion, congestive hemorrhage and necrosis of liver cells surrounding sinusoid: mice graded −” value (mouse livers)?
**A.** 4 number of mice

**Q.** How did the “enhancement of induced apoptosis” value (HL-60 cells) turn out when arsenious acid [As2O3] was run?
**A.** can enhance PDCD5-induced apoptosis

**Q.** What about the rate of apoptosis (HL-60 cells; high-dose As2O3 0.5 μg/mL) of the same molecule?
**A.** 78.02%

**Q.** And the rate of apoptosis (HL-60 cells; low-dose As2O3 0.25 μg/mL)?
**A.** 21.23%

**Q.** And the “CFA (ratio to untreated control)” value (HL60 cells)?
**A.** 52%
